{"source": "patent US11814652B2", "about": "“Pluripotent stem cell differentiation-promoting agent” (Oriental Yeast Co., Ltd., priority 2018, dated 2023)", "key": {"iPS cells 253G1 strain [1]": {"test_system": "iPS cells 253G1 strain", "assay": "Cell number during endodermal differentiation-induction in medium with β-NMN (Example 4)", "assay_type": "cell-based", "conditions": "endodermal differentiation-inducing medium containing β-NMN 0.1, 0.25 or 1 mM; 7th day after seeding; versus medium not containing β-NMN", "protocol": "The effects of β-NMN on the induction of endodermal differentiation of iPS cells were examined. As the iPS cells, the 253G1 strain was used. The iPS cells were seeded in a 24-well plate coated with Matrigel (manufactured by Corning Incorporated) according to the manufacturer's protocol at 3×10^5 cells/well. The cells in the 24-well plate were cultured in a culture medium for iPS cells adjusted to have a final concentration of Rock inhibitor of 10 μM for 1 day. From the 1st day after seeding, the culture medium was replaced with a culture medium prepared by adjusting an endoderm differentiation-inducing culture medium of “STEMdiff Trilineage Differentiation kit” (manufactured by STEMCELL Technologies) to have a final concentration of β-NMN of 0, 0.1, 0.25, or 1 mM for 1 day. The culture medium was replaced with a culture medium prepared by adjusting an endodermal differentiation-inducing culture medium to have final concentrations of both β-NMN and Rock inhibitor of 10 μM only on the 1st day after seeding. Cells of the 7th day after seeding were sampled and the cell numbers were counted. As a result, the number of the cells cultured in the endodermal differentiation-inducing culture medium containing β-NMN was larger than the number of the cells cultured in the medium not containing β-NMN."}, "iPS cells 253G1 strain [2]": {"test_system": "iPS cells 253G1 strain", "assay": "Flow cytometry of Sox17 after endodermal differentiation-induction following undifferentiated culture with β-NMN (Example 5)", "assay_type": "cell-based", "conditions": "β-NMN 0.25 or 1 mM during undifferentiated culture, then endodermal differentiation-induction; 5th or 7th day; versus absence of β-NMN", "protocol": "The effects of culturing in the presence of β-NMN before induction of differentiation on the endodermal differentiation-induction of iPS cells was examined. As the iPS cells, the 253G1 strain was used. iPS cells seeded on a culture dish coated with Matrigel (manufactured by Corning Incorporated) according to the manufacturer's protocol were cultured in a culture medium prepared by adjusting a culture medium for iPS cells to have a final concentration of β-NMN 0, 0.25 or 1 mM, and a final concentration of Rock inhibitor of 10 μM for 1 day. From the 1st day after seeding, the culture medium was replaced every day with a culture medium obtained by removing the Rock inhibitor from the culture medium at the time of seeding. When the confluent reached 70 to 80%, the iPS cells were detached from the culture dish and collected. The collected iPS cells were seeded at 3×10^5 cells/well in a 24-well plate coated with Matrigel (manufactured by Corning Incorporated) according to the manufacturer's protocol. […] After washing the stained cells, a flow cytometer “FACS caliber” (manufactured by Becton, Dickinson and Company) was used to analyze the fluorescence intensity of the anti-Sox17 antibody and the fluorescence intensity of the anti-FoxA2 antibody in each sample. […]"}, "iPS cells 201B7 strain": {"test_system": "iPS cells 201B7 strain", "assay": "Cell number in mesodermal differentiation-induction after undifferentiated culture with β-NMN (Example 6)", "assay_type": "cell-based, human", "conditions": "β-NMN 0.25 or 1 mM in culture medium for iPS cells before mesodermal differentiation-induction; 7th day after seeding; versus no β-NMN", "protocol": "The effects of culturing in the presence of β-NMN before induction of differentiation on the mesodermal differentiation-induction of iPS cells was examined. As the iPS cells, the 201B7 strain was used. The iPS cells were cultured in a culture dish in the same manner as in Example 5, and when the confluent reached 70 to 80%, the iPS cells were detached from the culture dish and collected. The collected iPS cells were seeded at 1×10^5 cells/well in a 24-well plate coated with Matrigel (manufactured by Corning Incorporated) according to the manufacturer's protocol. The cells in the 24-well plate were cultured for 1 day in a culture medium prepared by removing β-NMN from the culture medium when culturing in the culture dish and adjusting to have a final concentration of Rock inhibitor of 10 μM. From the 1st day after seeding, the medium was replaced every day with a culture medium for mesodermal differentiation-induction of “STEMdiff Trilineage Differentiation kit” (manufactured by STEMCELL Technologies). The cells of the 7th day after seeding were sampled and the cell numbers were counted. […]"}}, "data": [{"smiles": "NC(=O)c1ccc[n+]([C@@H]2O[C@H](COP(=O)([O-])O)[C@@H](O)[C@H]2O)c1", "note": "[β-NMN, β-nicotinamide mononucleotide]", "values": [{"measurement": "number of the cells", "setting": "iPS cells 253G1 strain [1]", "value": "larger"}, {"measurement": "ratio of Sox17-positive cells", "setting": "iPS cells 253G1 strain [2]", "value": "higher"}, {"measurement": "number of the cells", "setting": "iPS cells 201B7 strain", "value": "larger"}]}]}
